Experimental data taken from patent US4861788A, “Antibacterial 1-normon-2-yl-heterocyclic compounds” (Beecham Group plc, priority 1983, dated 1989).
Converted amounts (≈) assume the structure as drawn. Like-named read-outs stand apart in the source and are kept apart here.

Tests used:
[1] = tested on: Strep. suis (group D) SPS11; experiment: MIC against veterinary bacteria in vitro (Diagnostic Sensitivity Test Agar); details: Streptococcus suis, 18 h
Method: (§2) The activity of the normonyl derivatives of the Examples against various veterinarily important bacteria, was assayed in vitro using two-fold serial dilutions in Diagnostic Sensitivity Test Agar inoculated with 10^4 organisms.

M. gallisepticum S6 = experiment: MIC against Mycoplasma in vitro (Friis broth with agarose); type: cell-based; details: Mycoplasmoides gallisepticum, 144 h; M. gallisepticum S6; 6 days at 37° C; read-out: MIC
[2] = tested on: Staph. aureus B4 (pen. resistant); experiment: MIC against veterinary bacteria in vitro (Diagnostic Sensitivity Test Agar); details: Staphylococcus aureus, 18 h
Method: as §2

M. hyopneumoniae TAM 6N = experiment: MIC against Mycoplasma in vitro (Friis broth with agarose); type: cell-based; details: Mesomycoplasma hyopneumoniae, TAM6N, 144 h; M. hyopneumoniae TAM 6N; 6 days at 37° C; read-out: MIC
Sarcina lutea 8340 = experiment: MIC against human bacteria in vitro (nutrient agar, chocolated horse blood); type: cell-based; details: Micrococcus luteus; human; Sarcina lutea 8340; 18 hours at 37° C; read-out: MIC
Method: (§1) The activity of the normonyl derivaties of the Examples against various bacteria which are important in diseases of humans, was assayed in vitro using serial dilutions in nurient agar with 5% chocolated horse blood.

Bacillus subtilis 6633 = experiment: as above; type: cell-based; details: human; Bacillus subtilis 6633; 18 hours at 37° C; read-out: MIC
Method: as §1

P. mirabilis 889 = experiment: as above; type: cell-based; details: Proteus mirabilis; human; P. mirabilis 889; 18 hours at 37° C; read-out: MIC
Method: as §1

Strep. faecalis I = experiment: as above; type: cell-based; details: Enterococcus faecalis; human; Strep. faecalis I; 18 hours at 37° C; read-out: MIC
Method: as §1

E. coli NCTC 10418 = experiment: as above; type: cell-based; details: Escherichia coli, NCTC10418; human; E. coli NCTC 10418; 18 hours at 37° C; read-out: MIC
Method: as §1

E. coli ESS = experiment: as above; type: cell-based; details: Escherichia coli; human; E. coli ESS; 18 hours at 37° C; read-out: MIC
Method: as §1

Staph. aureus Russell = experiment: as above; type: cell-based; details: Staphylococcus aureus; human; Staph. aureus Russell; 18 hours at 37° C; read-out: MIC
Method: as §1

[3] = tested on: Ps. aeruginosa NCTC 10662; experiment: as above; type: cell-based; details: Pseudomonas aeruginosa, NCTC10662; human; Ps. aeruginosa NCTC 10662; 18 hours at 37° C; read-out: MIC
Method: as §1

Staph. aureus Oxford [4] = experiment: as above; type: cell-based; details: Staphylococcus aureus; human; Staph. aureus Oxford; 18 hours at 37° C; read-out: MIC
Method: as §1

[5] = tested on: Haemophilus influenzae Wy21; experiment: as above; type: cell-based; details: human; Haemophilus influenzae Wy21; 18 hours at 37° C; read-out: MIC
Method: as §1

[6] = tested on: Strep. pyogenes R80/421-A; experiment: as above; type: cell-based; details: Streptococcus pyogenes; human; Strep. pyogenes R80/421-A; 18 hours at 37° C; read-out: MIC
Method: as §1

Staph. aureus W2827 = experiment: as above; type: cell-based; details: Staphylococcus aureus; human; Staph. aureus W2827; 18 hours at 37° C; read-out: MIC
Method: as §1

Strep. spp. 64/848-C = experiment: as above; type: cell-based; details: human; Strep. spp. 64/848-C; 18 hours at 37° C; read-out: MIC
Method: as §1

K. aerogenes A = experiment: as above; type: cell-based; details: Klebsiella aerogenes; human; K. aerogenes A; 18 hours at 37° C; read-out: MIC
Method: as §1

[7] = tested on: Corynebacterium xerosis 9755; experiment: as above; type: cell-based; details: human; Corynebacterium xerosis 9755; 18 hours at 37° C; read-out: MIC
Method: as §1

[8] = tested on: Pasteurella multocida 1633; experiment: as above; type: cell-based; details: human; Pasteurella multocida 1633; 18 hours at 37° C; read-out: MIC
Method: as §1

Strep. agalactiae 2788-B = experiment: as above; type: cell-based; details: Streptococcus agalactiae; human; Strep. agalactiae 2788-B; 18 hours at 37° C; read-out: MIC
Method: as §1

[9] = tested on: Staph. aureus 152 (pen. sens); experiment: MIC against veterinary bacteria in vitro (Diagnostic Sensitivity Test Agar); details: Staphylococcus aureus, 18 h
Method: as §2

Strep. dysgalactiae SPD1 = experiment: as above; details: Streptococcus dysgalactiae, SPD1, 18 h
Method: as §2

M. hyopneumoniae UCD 1 = experiment: MIC against Mycoplasma in vitro (Friis broth with agarose); type: cell-based; details: Mesomycoplasma hyopneumoniae, UCD1, 144 h
Staph. aureus Oxford [10] = experiment: MIC against veterinary bacteria in vitro (Diagnostic Sensitivity Test Agar); details: Staphylococcus aureus, 18 h
Method: as §2

M. hyopneumoniae Str. 11 = experiment: MIC against Mycoplasma in vitro (Friis broth with agarose); type: cell-based; details: Mesomycoplasma hyopneumoniae
M. hyopneumoniae JF 435 = experiment: as above; type: cell-based; details: Mesomycoplasma hyopneumoniae, JF435, 144 h; M. hyopneumoniae JF 435; 6 days at 37° C; read-out: MIC
M. hyorhinis ATCC 23234 = experiment: as above; type: cell-based; details: Mesomycoplasma hyorhinis, ATCC23234, 144 h; M. hyorhinis ATCC 23234; 6 days at 37° C; read-out: MIC
S. typhimurium S18 = experiment: MIC against veterinary bacteria in vitro (Diagnostic Sensitivity Test Agar); details: Salmonella enterica, 18 h
Method: as §2

Past. haemolytica PA5 = experiment: as above; details: Mannheimia haemolytica, PA5, 18 h
Method: as §2

M. pneumoniae ATCC 15492 = experiment: MIC against Mycoplasma in vitro (Friis broth with agarose); type: cell-based; details: Mycoplasmoides pneumoniae, ATCC15492, 144 h; M. pneumoniae ATCC 15492; 6 days at 37° C; read-out: MIC
[11] = tested on: Corynebacterium pyogenes CY1; experiment: MIC against veterinary bacteria in vitro (Diagnostic Sensitivity Test Agar); details: CY1, 18 h
Method: as §2

[12] = tested on: M. hyopneumoniae J2206/183^b; experiment: MIC against Mycoplasma in vitro (Friis broth with agarose); type: cell-based; details: Mesomycoplasma hyopneumoniae, 144 h; M. hyopneumoniae J2206/183^b; 6 days at 37° C; read-out: MIC

CSc1ccc(-c2nnc(C=C(C)CC3OCC(CC4OC4C(C)C(C)O)C(O)C3O)o2)cc1 (stereo not shown) [Example 3, 2-p-Methylthiophenyl-5-(1-normon-2-yl)-1,3,4-oxadiazole A]
MIC [1]: 80 µg/mL (≈ 163 µM) | MIC (M. gallisepticum S6): > 10 µg/mL | MIC [2]: 2.5 µg/mL (≈ 5.1 µM) | MIC (M. hyopneumoniae TAM 6N): 2.5 µg/mL (≈ 5.1 µM) | MIC (Sarcina lutea 8340): > 128 µg/mL | MIC (Bacillus subtilis 6633): 4 µg/mL (≈ 8.15 µM) | MIC (P. mirabilis 889): > 128 µg/mL | MIC (Strep. faecalis I): > 128 µg/mL | MIC (E. coli NCTC 10418): > 128 µg/mL | MIC (E. coli ESS): 4 µg/mL (≈ 8.15 µM) | MIC (Staph. aureus Russell): 8 µg/mL (≈ 16.3 µM) | MIC [3]: > 128 µg/mL | MIC (Staph. aureus Oxford [4]): 8 µg/mL (≈ 16.3 µM) | MIC [5]: 2 µg/mL (≈ 4.08 µM) | MIC [6]: 16 µg/mL (≈ 32.6 µM) | MIC (Staph. aureus W2827): 8 µg/mL (≈ 16.3 µM) | MIC (Strep. spp. 64/848-C): 16 µg/mL (≈ 32.6 µM) | MIC (K. aerogenes A): > 128 µg/mL | MIC [7]: > 128 µg/mL | MIC [8]: 8 µg/mL (≈ 16.3 µM) | MIC (Strep. agalactiae 2788-B): 32 µg/mL (≈ 65.2 µM) | MIC [9]: 2.5 µg/mL (≈ 5.1 µM) | MIC (Strep. dysgalactiae SPD1): 10 µg/mL (≈ 20.4 µM) | MIC (M. hyopneumoniae UCD 1; M. hyopneumoniae UCD 1, 6 days at 37° C, read-out: MIC): 1 µg/mL (≈ 2.04 µM) | MIC (Staph. aureus Oxford [10]): 5 µg/mL (≈ 10.2 µM) | MIC (M. hyopneumoniae Str. 11; STR.11, 144 h): 1 µg/mL (≈ 2.04 µM) | MIC (M. hyopneumoniae JF 435): 2.5 µg/mL (≈ 5.1 µM) | MIC (M. hyorhinis ATCC 23234): 0.5 µg/mL (≈ 1.02 µM) | MIC (S. typhimurium S18): > 80 µg/mL | MIC (Past. haemolytica PA5): 20 µg/mL (≈ 40.8 µM) | MIC (M. pneumoniae ATCC 15492): > 10 µg/mL | MIC [11]: > 80 µg/mL

CC(=Cc1nnc(-c2cccnc2)o1)CC1OCC(CC2OC2C(C)C(C)O)C(O)C1O (stereo not shown) [Example 5, 2-(1-Normon-2-yl)-5-(3-pyridyl)-1,3,4-oxadiazole A]
MIC [1]: > 80 µg/mL | MIC (M. gallisepticum S6): > 10 µg/mL | MIC [2]: 10 µg/mL (≈ 22.4 µM) | MIC (M. hyopneumoniae TAM 6N): 2.5 µg/mL (≈ 5.61 µM) | MIC (Sarcina lutea 8340): > 128 µg/mL | MIC (Bacillus subtilis 6633): 4 µg/mL (≈ 8.98 µM) | MIC (P. mirabilis 889): > 128 µg/mL | MIC (Strep. faecalis I): > 128 µg/mL | MIC (E. coli NCTC 10418): > 128 µg/mL | MIC (E. coli ESS): 4 µg/mL (≈ 8.98 µM) | MIC (Staph. aureus Russell): 32 µg/mL (≈ 71.8 µM) | MIC [3]: > 128 µg/mL | MIC (Staph. aureus Oxford [4]): 8 µg/mL (≈ 18 µM) | MIC [5]: 0.5 µg/mL (≈ 1.12 µM) | MIC [6]: 8 µg/mL (≈ 18 µM) | MIC (Staph. aureus W2827): 32 µg/mL (≈ 71.8 µM) | MIC (Strep. spp. 64/848-C): 32 µg/mL (≈ 71.8 µM) | MIC (K. aerogenes A): > 128 µg/mL | MIC [7]: > 128 µg/mL | MIC [8]: 1 µg/mL (≈ 2.24 µM) | MIC (Strep. agalactiae 2788-B): 32 µg/mL (≈ 71.8 µM) | MIC [9]: 10 µg/mL (≈ 22.4 µM) | MIC (Strep. dysgalactiae SPD1): 10 µg/mL (≈ 22.4 µM) | MIC (M. hyopneumoniae UCD 1): 2.5 µg/mL (≈ 5.61 µM) | MIC (Staph. aureus Oxford [10]): 20 µg/mL (≈ 44.9 µM) | MIC [12]: 2.5 µg/mL (≈ 5.61 µM) | MIC (M. hyopneumoniae Str. 11; 144 h, M. hyopneumoniae Str. 11, 6 days at 37° C, read-out: MIC): 1 µg/mL (≈ 2.24 µM) | MIC (M. hyopneumoniae JF 435): 2.5 µg/mL (≈ 5.61 µM) | MIC (M. hyorhinis ATCC 23234): 1 µg/mL (≈ 2.24 µM) | MIC (S. typhimurium S18): > 80 µg/mL | MIC (M. pneumoniae ATCC 15492): > 10 µg/mL | MIC [11]: > 80 µg/mL
